The values below are quoted from earlier work in patent publication US20230009337A1, “Liberty Vitamins and Drinks” (priority 2021, published 2023).

Data set [1] addresses T1, TWIK2 potassium channels (Homo sapiens, UniProt Q9Y257).
T1 construct: host or cells: macrophage white blood cell (as described in the diagram)
T1 sequence (Q9Y257 1-313): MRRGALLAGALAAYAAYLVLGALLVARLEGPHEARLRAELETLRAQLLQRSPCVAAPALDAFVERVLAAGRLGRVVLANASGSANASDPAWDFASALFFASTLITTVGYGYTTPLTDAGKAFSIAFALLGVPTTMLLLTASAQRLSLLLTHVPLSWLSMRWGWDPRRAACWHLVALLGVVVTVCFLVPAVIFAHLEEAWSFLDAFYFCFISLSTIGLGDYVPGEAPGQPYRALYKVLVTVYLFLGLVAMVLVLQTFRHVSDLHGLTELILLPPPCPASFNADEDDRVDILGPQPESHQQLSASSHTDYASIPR
Conditions: macrophage white blood cell; discovered by Dr. Jalees Rehman and Professor Asrar Malik, University of Illinois in Chicago.

Data set [2] deals with mice. Conditions: acetone/olive oil placed on the mice for 4 weeks.

Regarding `C=C[C@H]1C[N@@]2CC[C@H]1C[C@H]2[C@H](O)c1ccnc2ccc(OC)cc12` [Quinine], the “inhibition of TWIK2 channels” value in data set [1] is “can inhibit”. Besides, the “loss of skin and flesh (skin inflammation)” value in data set [2] is “did not have a loss of skin and flesh”.
